Measured values published in article PMC5951806, “Rapid labelling and covalent inhibition of intracellular native proteins using ligand-directed N-acyl-N-alkyl sulfonamide” (Nature Communications, 2018).

Assays:
Test in all cases: TMT LC-MSMS of 11-labelled proteins
Assay type in all cases: cell-based
[1] = target: ATP synthase subunit alpha, mitochondrial (ATP5A1) (Homo sapiens, UniProt P25705)
[2] = target: T1, prenylcysteine oxidase 1 (PCYOX1) (Homo sapiens, UniProt Q9UHG3)
T1 sequence (Q9UHG3 28-505): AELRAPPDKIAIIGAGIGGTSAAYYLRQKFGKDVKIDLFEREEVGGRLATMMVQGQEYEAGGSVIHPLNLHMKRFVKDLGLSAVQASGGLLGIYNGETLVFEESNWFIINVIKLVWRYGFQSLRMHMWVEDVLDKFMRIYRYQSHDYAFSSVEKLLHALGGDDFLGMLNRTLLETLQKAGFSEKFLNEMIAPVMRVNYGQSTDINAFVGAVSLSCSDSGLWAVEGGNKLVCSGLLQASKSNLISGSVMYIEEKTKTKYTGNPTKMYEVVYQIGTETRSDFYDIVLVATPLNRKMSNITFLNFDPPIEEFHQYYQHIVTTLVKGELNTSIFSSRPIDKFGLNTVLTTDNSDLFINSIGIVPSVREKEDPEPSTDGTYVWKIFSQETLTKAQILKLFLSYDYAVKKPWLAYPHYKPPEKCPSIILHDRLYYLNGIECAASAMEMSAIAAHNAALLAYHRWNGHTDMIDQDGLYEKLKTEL

Endoplasmin (HSP90B1) = Endoplasmin (HSP90B1) (Homo sapiens, UniProt P14625)
Endoplasmin (HSP90B1), sequence (P14625 22-803): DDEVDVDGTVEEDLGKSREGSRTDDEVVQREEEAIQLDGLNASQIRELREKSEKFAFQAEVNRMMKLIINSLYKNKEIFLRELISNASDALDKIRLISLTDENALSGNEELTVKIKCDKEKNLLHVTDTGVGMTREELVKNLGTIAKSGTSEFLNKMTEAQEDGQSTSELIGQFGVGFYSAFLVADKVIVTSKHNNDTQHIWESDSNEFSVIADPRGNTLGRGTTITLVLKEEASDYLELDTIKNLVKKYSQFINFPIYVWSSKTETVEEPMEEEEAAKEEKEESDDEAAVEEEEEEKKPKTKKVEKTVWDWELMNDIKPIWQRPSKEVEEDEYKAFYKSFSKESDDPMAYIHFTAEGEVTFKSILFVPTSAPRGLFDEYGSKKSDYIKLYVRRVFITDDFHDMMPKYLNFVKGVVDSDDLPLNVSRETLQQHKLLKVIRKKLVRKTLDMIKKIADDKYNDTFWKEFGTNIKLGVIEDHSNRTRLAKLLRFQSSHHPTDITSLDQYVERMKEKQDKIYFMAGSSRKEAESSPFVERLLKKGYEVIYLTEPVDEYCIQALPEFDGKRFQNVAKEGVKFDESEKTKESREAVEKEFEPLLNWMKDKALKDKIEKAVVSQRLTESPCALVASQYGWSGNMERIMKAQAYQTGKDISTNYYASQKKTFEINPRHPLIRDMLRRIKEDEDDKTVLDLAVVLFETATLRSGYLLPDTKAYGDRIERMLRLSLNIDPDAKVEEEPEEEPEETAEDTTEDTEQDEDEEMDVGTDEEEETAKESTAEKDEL

[3] = target: Trifunctional enzyme subunit alpha, mitochondrial (HADHA) (Homo sapiens, UniProt P40939)
Trifunctional enzyme subunit alpha, mitochondrial (HADHA), sequence (P40939 37-763): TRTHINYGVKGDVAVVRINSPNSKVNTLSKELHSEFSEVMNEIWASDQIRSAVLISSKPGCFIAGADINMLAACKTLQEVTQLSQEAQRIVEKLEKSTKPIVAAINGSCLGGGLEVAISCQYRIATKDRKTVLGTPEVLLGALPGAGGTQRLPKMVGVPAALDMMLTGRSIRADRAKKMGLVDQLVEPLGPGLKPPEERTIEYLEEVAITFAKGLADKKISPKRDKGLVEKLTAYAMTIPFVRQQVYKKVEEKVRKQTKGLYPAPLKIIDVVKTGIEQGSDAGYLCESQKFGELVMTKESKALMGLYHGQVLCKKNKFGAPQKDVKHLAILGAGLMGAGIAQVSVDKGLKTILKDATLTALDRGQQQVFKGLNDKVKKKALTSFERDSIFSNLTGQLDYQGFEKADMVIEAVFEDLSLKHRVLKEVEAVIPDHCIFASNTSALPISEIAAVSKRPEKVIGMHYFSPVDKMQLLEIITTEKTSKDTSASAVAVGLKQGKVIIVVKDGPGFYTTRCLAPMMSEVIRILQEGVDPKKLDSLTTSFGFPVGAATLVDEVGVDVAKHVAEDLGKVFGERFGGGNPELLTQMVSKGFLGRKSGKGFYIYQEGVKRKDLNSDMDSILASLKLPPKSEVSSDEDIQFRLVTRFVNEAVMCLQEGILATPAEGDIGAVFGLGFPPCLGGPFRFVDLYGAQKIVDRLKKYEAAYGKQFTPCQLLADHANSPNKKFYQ
Trifunctional enzyme subunit alpha, mitochondrial (HADHA), sequence (P55084 34-474 partner): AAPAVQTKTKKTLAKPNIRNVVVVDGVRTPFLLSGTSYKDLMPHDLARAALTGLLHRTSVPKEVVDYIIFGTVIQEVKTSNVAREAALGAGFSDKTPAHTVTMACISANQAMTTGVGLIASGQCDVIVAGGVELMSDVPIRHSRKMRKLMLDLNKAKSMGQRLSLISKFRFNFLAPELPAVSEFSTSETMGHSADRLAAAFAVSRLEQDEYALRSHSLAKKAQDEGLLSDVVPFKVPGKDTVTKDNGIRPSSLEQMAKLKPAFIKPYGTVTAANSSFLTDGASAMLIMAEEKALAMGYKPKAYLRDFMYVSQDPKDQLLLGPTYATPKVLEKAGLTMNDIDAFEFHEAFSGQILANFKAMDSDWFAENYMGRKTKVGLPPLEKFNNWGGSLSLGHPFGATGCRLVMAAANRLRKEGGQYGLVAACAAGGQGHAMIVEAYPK

[4] = sheet Exp1, SKBR3 cells, 11 0.5 µM 3 h vs DMSO
[5] = sheet Exp1, SKBR3 cells, 11 0.5 µM 3 h vs with PU-H71 10 µM
[6] = sheet Merged, SKBR3 cells, 11 0.5 µM 3 h vs DMSO
[7] = sheet Merged, SKBR3 cells, 11 0.5 µM 3 h vs with PU-H71 10 µM

CC(=O)Oc1ccc2c(c1)Oc1cc(OC(C)=O)ccc1C21OC(=O)c2cc(C(=O)NCCOCCOCCNC(=O)CCCC(=O)N(CC#N)S(=O)(=O)c3ccc(C(=O)NCCCn4c(Sc5cc6c(cc5I)OCO6)nc5c(N)ncnc54)cc3)ccc21 [compound 11]
Abundance Ratio: (11) / (11 with PU-H71) ([1]; Exp3, ATP5A1): 0.84
Abundance Ratio: (11) / (DMSO) ([1]; Exp3, ATP5A1): 3.573
Abundances (Grouped): 11 ([1]; Exp3, ATP5A1): 381.2
Abundances (Grouped): 11 with PU-H71 ([1]; Exp3, ATP5A1): 453.7
Abundance Ratio: (11) / (DMSO) [1, 4]: 3.323
Abundance Ratio: (11) / (11 with PU-H71) [1, 5]: 0.923
Abundance Ratio: (11) / (11 with PU-H71) ([1]; sheet Exp2, ATP5A1): 0.771
Abundance Ratio: (11) / (DMSO) ([1]; sheet Exp2, ATP5A1): 3.865
Abundances (Grouped): 11 ([1]; sheet Exp2, ATP5A1): 390.8
Abundances (Grouped): 11 with PU-H71 ([1]; sheet Exp2, ATP5A1): 506.9
Abundance Ratio: (11) / (DMSO) [1, 6]: 3.663
Abundance Ratio: (11) / (11 with PU-H71) [1, 7]: 0.771
Abundance Ratio: (11) / (11 with PU-H71) ([2]; Exp3, PCYOX1): 0.713
Abundance Ratio: (11) / (DMSO) ([2]; Exp3, PCYOX1): 1.251
Abundances (Grouped): 11 ([2]; Exp3, PCYOX1): 54.9
Abundances (Grouped): 11 with PU-H71 ([2]; Exp3, PCYOX1, with PU-H71): 77
Abundance Ratio: (11) / (DMSO) [2, 4]: 1.831
Abundance Ratio: (11) / (11 with PU-H71) [2, 5]: 0.86
Abundance Ratio: (11) / (DMSO) [2, 6]: 1.513
Abundance Ratio: (11) / (11 with PU-H71) [2, 7]: 0.783
Abundance Ratio: (11) / (11 with PU-H71) (Endoplasmin (HSP90B1); Exp3, HSP90B1): 1.101
Abundance Ratio: (11) / (DMSO) (Endoplasmin (HSP90B1); Exp3, HSP90B1): 2.844
Abundances (Grouped): 11 (Endoplasmin (HSP90B1); Exp3, HSP90B1): 158.7
Abundances (Grouped): 11 with PU-H71 (Endoplasmin (HSP90B1); Exp3, HSP90B1): 144.1
Abundance Ratio: (11) / (DMSO) (Endoplasmin (HSP90B1); [4]): 6.226
Abundance Ratio: (11) / (11 with PU-H71) (Endoplasmin (HSP90B1); [5]): 1.266
Abundance Ratio: (11) / (11 with PU-H71) (Endoplasmin (HSP90B1); sheet Exp2, HSP90B1): 0.932
Abundance Ratio: (11) / (DMSO) (Endoplasmin (HSP90B1); sheet Exp2, HSP90B1): 2.232
Abundances (Grouped): 11 (Endoplasmin (HSP90B1); sheet Exp2, HSP90B1): 31.7
Abundances (Grouped): 11 with PU-H71 (Endoplasmin (HSP90B1); sheet Exp2, HSP90B1): 34
Abundance Ratio: (11) / (DMSO) (Endoplasmin (HSP90B1); [6]): 6.226
Abundance Ratio: (11) / (11 with PU-H71) (Endoplasmin (HSP90B1); [7]): 1.266
Abundance Ratio: (11) / (11 with PU-H71) ([3]; Exp3, HADHA): 0.887
Abundance Ratio: (11) / (DMSO) ([3]; Exp3, HADHA): 5.561
Abundances (Grouped): 11 ([3]; Exp3, HADHA): 1575.4
Abundances (Grouped): 11 with PU-H71 ([3]; Exp3, HADHA): 1776.8
Abundance Ratio: (11) / (DMSO) [3, 4]: 7.409
Abundance Ratio: (11) / (11 with PU-H71) [3, 5]: 0.838
Abundance Ratio: (11) / (11 with PU-H71) ([3]; sheet Exp2, HADHA): 0.82
Abundance Ratio: (11) / (DMSO) ([3]; sheet Exp2, HADHA): 5.216
Abundances (Grouped): 11 ([3]; sheet Exp2, HADHA): 1189.7
Abundances (Grouped): 11 with PU-H71 ([3]; sheet Exp2, HADHA): 1451.4
Abundance Ratio: (11) / (DMSO) [3, 6]: 7.058
Abundance Ratio: (11) / (11 with PU-H71) [3, 7]: 0.838
